Laboratory results taken from patent publication US12122787B2, “Fused pyridone compound, and preparation method therefor and use thereof” (SHANGHAI JEMINCARE PHARMACEUTICALS CO., LTD, priority 2019, dated 2024).
Read-outs that look alike come from different tables or passages of the source.

How the values were obtained:
[1] = In vivo pharmacokinetic evaluation in mice by intravenous injection and oral administration; conditions: male ICR mice
Procedure: In this experimental embodiment, in vivo pharmacokinetic evaluation was performed in mice by intravenous injection and oral administration.
Experimental methods and conditions: Male ICR mice were given a single dose of 1 mg/Kg (intravenous injection, solvent 5% DMSO+15% Solutol+80% saline) and 5 mg/Kg (intragastric administration, solvent 1% Tween80/2% HPMC/97% water) of the compound to be tested, respectively; 5 min, 15 min, 30 min, 1 hour, 2 hours, 4 hours, 6 hours, 8 hours, 24 hours after administration, blood was collected from the orbital vein, and each sample was collected at approximately 0.20 mL, anticoagulated with sodium heparin, placed on ice after collection, and centrifuged within 1 hour to separate the plasma for measurement. Plasma drug concentration in plasma was detected by liquid chromatography tandem mass spectrometry (LC/MS/MS) to calculate pharmacokinetic parameters.

[2] = system: phosphorylated ERK (Thr202/Tyr204) in NCI-H358 cells expressing mutant RAS(G12C); experiment: Inhibition of RAS-mediated signal transduction: phosphorylated ERK ELISA in NCI-H358 cells; type: cell-based; conditions: NCI-H358 cells, 2 hours of treatment, pERK normalized by Janus Green B, read-out: p-ERK IC50 (NCI H358)
[3] = system: NCI-H358 cells expressing KRAS-G12C; experiment: Growth inhibition of tumor cell line expressing KRAS-G12C (Cell Titer Glo), NCI-H358; type: cell-based
In short: (§1)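 NCI-H358 (RPMI, 10% FBS) and MIA PaCa2 (DMEM, 10% FBS, 2.5% horse serum) seeded at 1000 and 800 cells/well, adhered overnight, then treated 72 h at 0.1% DMSO. ATP by Cell Titer Glo; GI50 fitted from 9 concentrations at ⅓-fold dilution versus DMSO control.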

[4] = system: MIA PaCa2 cells expressing KRAS-G12C; experiment: Growth inhibition of tumor cell line expressing KRAS-G12C (Cell Titer Glo), MIA PaCa2; type: cell-based; conditions: MIA-Paca2, 72 hours
In short: as §1

[5] = intragastric administration 5 mg/kg vs intravenous 1 mg/kg
[6] = intragastric administration 5 mg/kg, plasma
[7] = intravenous administration 1 mg/kg, plasma
[8] = mouse, po, intragastric administration 5 mg/kg, plasma
[9] = mouse, intravenous administration 1 mg/kg, plasma

Row | SMILES | F (%) [1, 5] | AUCinf [1, 6] | Cmax [1, 6] | T1/2 [1, 6] | AUCinf [1, 7] | Cl [1, 7] | T1/2 [1, 7] | Vz [1, 7] | IC50 [2] | GI50 ([3]; NCI-H358, 72 hours) | GI50 [4] | other results
1 | C=CC(=O)N1C[C@@H]2C(=O)N(CCN(C)C)c3c(c4cc(Cl)c(-c5c(F)cccc5OC)c(F)c4n(-c4c(C)ccnc4C(C)C)c3=O)N2C[C@H]1C (atropisomer, axis not shown) [Compound 27C] | 20.30% | 526.88 ng·h/mL | 133.67 ng/mL | 1.78 h | 519.01 ng·h/mL | 32.11 mL/min/kg | 1.76 h | 4.89344 L/kg | 4 nM | 5 nM | 3 nM | –
2 | C=CC(=O)N1CC2COc3c(c4cc(F)c(-c5c(O)cccc5F)c(F)c4n(-c4c(C)ccnc4C(C)C)c3=O)N2CC1C (single isomer, unassigned) [Compound 3B-2] | 17.01% | 1984.18 ng·h/mL | 746.67 ng/mL | 3.96 h | 2333.44 ng·h/mL | 7.14 mL/min/kg | 5.99 h | 3.7066 L/kg | 6 nM | 5 nM | 31 nM | –
3 | C=CC(=O)N1CCN(c2nc(=O)n(-c3c(C)ccnc3C(C)C)c3nc(-c4c(O)cccc4F)c(F)cc23)[C@@H](C)C1 [AMG 510] | – | – | – | – | – | – | – | – | – | – | – | bioavailability ([1]; mouse, plasma, oral, intragastric administration 5 mg/kg vs intravenous 1 mg/kg): 17.6%; AUC(0-inf) [1, 8]: 155 ng·h/mL; half-life [1, 8]: 0.57 h; Cmax ([1]; mouse, po, intragastric administration 5 mg/kg, plasma, read-out: Cmax): 177 ng/mL; AUC(0-inf) [1, 9]: 176 ng·h/mL; clearance [1, 9]: 94.6 mL/min/kg; half-life [1, 9]: 0.26 h; Vd ([1]; mouse, intravenous administration 1 mg/kg, plasma, read-out: Vz): 2.16 L/kg
4 | C=CC(=O)N1C[C@@H]2C(=O)N(C)c3c(c4cc(Cl)c(-c5c(O)cccc5F)c(F)c4n(-c4c(CC)ccnc4C(C)C)c3=O)N2C[C@H]1C [Compound 53A-1] | – | – | – | – | – | – | – | – | – | – | – | IC50 ([2]; Homo sapiens, NCI-H358, 2 h): 3 nM; GI50 ([3]; Homo sapiens, NCI-H358, 72 h): 2 nM; GI50 ([4]; Homo sapiens, MIA PaCa-2, 72 h): 4 nM
